What all share (type): cell-based
Test [1] relates to P. falciparum 3D7 (CQ-sensitive). Put plainly: HRP2-based ELISA growth inhibition, 3D7 strain. To be noted: Plasmodium falciparum, unmarked values: HRP II ELISA, 72 h. The text has this: (§1) Highly sensitive HRP2-based ELISA and [^3H]-hypoxanthine incorporation assay were used as markers for inhibition of parasite growth as previously described (12, 14). A solvent control and a chloroquine (CQ) control were included in the HRP2-based ELISA. CQ, lumefantrine and artesunate were included as controls in the [^3H]-hypoxanthine assay series.
(§2) The assay protocol of the HRP2-based ELISA is described in more detail in the following paragraphs.
(§3) The P. falciparum clones were maintained in continuous culture as described previously (10). Briefly, 3D7 (CQ-sensitive), NF54, and K1 (CQ-resistant) P. falciparum clones were obtained from MR4/American Type Culture Collection, Manassas, Va., USA under the accession numbers MR4-102 (3D7), MRA-1000 (NF54), and MR4-159 (K1). P. falciparum cultures were maintained in 25 cm^2 flasks. Parasites were cultured in RPMI 1640 (Sigma Aldrich, Austria) medium containing 10% human serum at a hematocrit of 5% (blood group 0 negative) at 37° C. under an atmosphere of 5% CO2, 5% O2 and 90% N2. The medium was changed every 24 to 48 hours. The culture was diluted and fresh erythrocytes were added whenever the parasite density reached >1%.
(§4) Stock solutions of compounds of formula I were prepared in DMSO (10 mg/mL). Stock concentrations of chloroquine and lumefantrine always remained 1 mg/mL and were prepared in 70% ethanol. Coating of culture plates with compounds of formula I and controls: 96 wells culture plates were coated as described previously (11). Working standards were prepared by diluting the stock solutions in RPMI1640 to obtain the desired final concentrations. Serial three-fold dilutions (seven concentrations and one drug-free control well) of the drugs (25 μL/well) were dispensed in duplicate into standard 96-well micro culture plates. Chloroquine was included as a reference drug in all experiments.
(§5) After reaching a parasitemia of 5% or higher, 5 mL of cell medium mixture were centrifuged at 700 g for 5 minutes at room temperature (RT). Packed red cells were resuspended in 3 mL of 5% D-sorbitol (Sigma Aldrich, Austria) in water at RT and immediately centrifuged again at 700 g for 5 minutes at RT followed by three washes with 3 mL of RPMI1640 medium. […].
(§6) Samples were diluted with RPMI1640 medium containing 0.5% Albumax II (GIBCO, Invitrogen, Vienna, Austria) by adding uninfected red blood cells to 1.5% hematocrit and 0.05% parasitemia. 150 μL of this cell medium mixture was then added to each well of 96-well plates precoated with test compounds and incubated at 37° C. for 72 hours in a gas mixture containing 5% CO2, 5% O2, and 90% N2. After 72 hours the plates were frozen at −20° C. until the histidine rich protein II assay (23).
(§7) A highly sensitive HRPII ELISA was used based on two commercially available monoclonal antibodies (Immunology Consultants Laboratory, Inc., Newberg, Oreg.) directed against P. falciparum-specific HRPII: MPFM-55A, an immunoglobulin M antibody served as the primary capture antibody and HRP-conjugated MPFG-55P (Immunology Consultants Laboratory, Inc., Newberg, Oreg.) as secondary antibody. The ELISA was employed to assess growth inhibition as a measure of drug susceptibility as previously described. Optical density was measured at 450 nm using a standard ELISA plate reader (12-13).
(§8) Hyperbolic concentration response curves were fitted to the data points by nonlinear least squares using the solver add-in of the Excel software.
(§9) Indicated in TABLE 2 are the IC50 [μM] values for growth inhibition of the 3D7 (NF54) and K1 strains of P. falciparum for the compounds of formula I indicated with their formula numbers in TABLE 2. Unmarked IC50 values for K1 and 3D7 strains of P. falciparum have been determined by HRP II enzyme linked immunosorbent assay (ELISA) as described above. […]

Test [2] relates to P. falciparum K1 (CQ-resistant). Put plainly: HRP2-based ELISA growth inhibition, K1 strain. To be noted: Plasmodium falciparum, unmarked values: HRP II ELISA, 72 h.
Source text: as §1, §2, §3, §4, §5, §6, §7, §8, §9
(In general: An ELISA detects its analyte on a solid surface through an enzyme-linked reagent.)

Test [3] concerns P. falciparum NF54 (CQ sensitive). Briefly: [3H]-hypoxanthine incorporation assay, NF54 strain. To be noted: Plasmodium falciparum, values marked with asterisk: [3H]-hypoxanthine assay, read-out: IC50 growth inhibition NF54*.
In test [4] the test system is P. falciparum K1 (CQ-resistant). Briefly: [3H]-hypoxanthine incorporation assay, K1 strain. Particulars: Plasmodium falciparum, values marked with asterisk: [3H]-hypoxanthine assay, read-out: IC50 growth inhibition K1 (*).

SMILES strings stand for the structures. pIC50: −log10 of the molar value.

Consider `CC(NCC(O)COc1ccccc1C(=O)NCc1ccccc1)C12CC3CC(CC(C3)C1)C2` (stereo not drawn) [Compound I-28, 2-[3-(1-Adamantan-1-yl-ethylamino)-2-hydroxy-propoxy]-N-benzyl-benzamide], for which the negative-log IC50 (pIC50) in test [1] is 6.51; in test [2], 7.05.

On to `O=C(NCc1ccccc1)c1ccccc1OCC(O)CNC1CCCCCCC1` (stereo not drawn) [Compound I-53, N-Benzyl-2-(3-cyclooctylamino-2-hydroxy-propoxy)-benzamide], for which the pIC50 in test [1] was 6.71; in test [2], 7.54.

Turning to `COc1ccccc1CNC(=O)c1ccccc1OCC(O)CNC1C2CC3CC(C2)CC1C3` (stereo not drawn) [Compound I-7, 2-[3-(Adamantan-2-ylamino)-2-hydroxy-propoxy]-N-(2-methoxy-benzyl)-benzamide], the negative logarithm of the IC50 (pIC50) was 6.70 in test [1] and 7.00 in test [2].

For `COc1ccccc1CNC(=O)c1ccccc1OCC(O)CNCC12CC3CC(CC(C3)C1)C2` (stereo not drawn) [Compound I-29, 2-{3-[(Adamantan-1-ylmethyl)-amino]-2-hydroxy-propoxy}-N-(2-methoxy-benzyl)-benzamide], the pIC50 is 7.01 in test [1] and 8.30 in test [2].

On to `COc1ccc(CNC(=O)c2ccccc2OCC(O)CNC2C3CC4CC(C3)CC2C4)cc1` (stereo not drawn) [Compound I-8, 2-[3-(Adamantan-2-ylamino)-2-hydroxy-propoxy]-N-(4-methoxy-benzyl)-benzamide], for which the pIC50 in test [1] was 6.85; in test [2], 7.89.

For `O=C(NCc1ccccc1)c1ccccc1OCC(O)CN(C1CC1)C1C2CC3CC(C2)CC1C3` (stereo not drawn) [Compound I-20, 2-[3-(Adamantan-2-yl-cyclopropyl-amino)-2-hydroxy-propoxy]-N-benzyl-benzamide], the pIC50 is 5.90 in test [1] and 7.00 in test [2].

For the compound `C#CCOc1cc(CN(CCC)CC(O)COc2ccccc2C(=O)NCc2ccccc2)ccc1OC` (stereo not drawn) [Compound I-63, N-Benzyl-2-{2-hydroxy-3-[(4-methoxy-3-prop-2-ynyloxy-benzyl)-propyl-amino]-propoxy}-benzamide], the negative logarithm of the IC50 (pIC50) in test [1] was 5.02; in test [2], 6.01.

`CCCNCC(O)COc1ccccc1C(=O)Nc1ccc(C)cc1` (stereo not drawn) [Compound I-54, 2-(2-Hydroxy-3-propylamino-propoxy)-N-p-tolyl-benzamide]: the negative logarithm of the IC50 (pIC50) in test [1] is 6.56; in test [2], 7.07.

For `O=C(NCc1ccccc1)c1ccccc1OCC(O)CNC1CCCCCCCCCCC1` (stereo not drawn) [Compound I-52, N-Benzyl-2-(3-cyclododecylamino-2-hydroxy-propoxy)-benzamide], the values for the negative-log IC50 (pIC50) in test [1] and in test [2] were 6.25 and 7.28, respectively.

For `O=C(NCc1ccccc1)c1ccccc1OCC(O)CN(CCc1ccccc1)C1C2CC3CC(C2)CC1C3` (stereo not drawn) [Compound I-22, 2-[3-(Adamantan-2-yl-phenethyl-amino)-2-hydroxy-propoxy]-N-benzyl-benzamide], the results for the pIC50 in test [1] and in test [2] were 6.43 and 6.60, respectively.

On to `COc1ccccc1CNC(=O)c1ccccc1OCC(O)CNC12CC3CC(CC(C3)C1)C2` (stereo not drawn) [Compound I-2, 2-[3-(Adamantan-1-ylamino)-2-hydroxy-propoxy]-N-(2-methoxy-benzyl)-benzamide], for which the pIC50 is 6.17 in test [1] and 6.36 in test [2].

Consider `CN(CC(O)COc1ccccc1C(=O)NCc1ccccc1)CC12CC3CC(CC(C3)C1)C2` (stereo not drawn) [Compound I-36, 2-[3-(Adamantan-1-ylmethyl-methyl-amino)-2-hydroxy-propoxy]-N-benzyl-benzamide], for which the pIC50 was 6.17 in test [3] and 6.74 in test [4].

For the compound `C=CCNCC(O)COc1ccccc1C(=O)Nc1ccccc1CC=C` (stereo not drawn) [Compound I-65, 2-(3-Allylamino-2-hydroxy-propoxy)-N-(2-allyl-phenyl)-benzamide], the pIC50 is 5.59 in test [3] and 6.31 in test [4].

For the compound `CC(C)CCNC(=O)c1ccccc1OCC(O)CNC(C)C12CC3CC(CC(C3)C1)C2` (stereo not drawn) [Compound I-25, 2-[3-(1-Adamantan-1-yl-ethylamino)-2-hydroxy-propoxy]-N-(3-methyl-butyl)-benzamide], the pIC50 in test [3] was 7.13; in test [4], 7.74.

Regarding `CCCCN(CCCC)CC(O)COc1ccccc1C(=O)NCCC(C)C` (stereo not drawn) [Compound I-57, 2-(3-Dibutylamino-2-hydroxy-propoxy)-N-(3-methyl-butyl)-benzamide], the negative-log IC50 (pIC50) in test [3] was 6.48; in test [4], 7.12.

For the compound `O=C(Nc1cccc(C(F)(F)F)c1)c1cc(Cl)ccc1OCC(O)CN1CCC(c2ccccc2)CC1` (stereo not drawn) [Compound I-83, 5-Chloro-2-[2-hydroxy-3-(4-phenyl-piperidin-1-yl)-propoxy]-N-(3-trifluoromethyl-phenyl)-benzamide], the pIC50 in test [3] was 7.80; in test [4] it was 8.46.

On to `O=C(Nc1ccccc1F)c1ccccc1OCC(O)CNCC12CC3CC(CC(C3)C1)C2` (stereo not drawn) [Compound I-38, 2-{3-[(Adamantan-1-ylmethyl)-amino]-2-hydroxy-propoxy}-N-(2-fluoro-phenyl)-benzamide], for which the results for the negative logarithm of the IC50 (pIC50) in test [3] and in test [4] were 7.62 and 8.10, respectively.

For the compound `CN(CC(O)COc1ccccc1C(=O)Nc1ccc(F)cc1)CC12CC3CC(CC(C3)C1)C2` (stereo not drawn) [Compound I-37, 2-[3-(Adamantan-1-ylmethyl-methyl-amino)-2-hydroxy-propoxy]-N-(4-fluoro-phenyl)-benzamide], the pIC50 in test [3] was 7.20; in test [4], 7.80.

Consider `O=C(Nc1cccc(C(F)(F)F)c1)c1cc(Cl)ccc1OCC(O)CNCC12CC3CC(CC(C3)C1)C2` (stereo not drawn) [Compound I-72, 2-{3-[(Adamantan-1-ylmethyl)-amino]-2-hydroxy-propoxy}-5-chloro-N-(3-trifluoromethyl-phenyl)-benzamide], for which the negative logarithm of the IC50 (pIC50) was 8.38 in test [3] and 9.00 in test [4].

On to `O=C(Nc1ccc(F)cc1)c1ccccc1OCC(O)CN1CCN(C(c2ccccc2)c2ccccc2)CC1` (stereo not drawn) [Compound I-48, 2-[3-(4-Benzhydryl-piperazin-1-yl)-2-hydroxy-propoxy]-N-(4-fluoro-phenyl)-benzamide], for which the pIC50 in test [3] was 7.85; in test [4] it was 8.40.

For the compound `O=C(Nc1ccc(F)cc1)c1ccccc1OCC(O)CN1CCC(Cc2ccccc2)CC1` (stereo not drawn) [Compound I-47, 2-[3-(4-Benzyl-piperidin-1-yl)-2-hydroxy-propoxy]-N-(4-fluoro-phenyl)-benzamide], the results for the negative logarithm of the IC50 (pIC50) in test [3] and in test [4] were 7.80 and 8.15, respectively.

Turning to `O=C(Nc1cccc(C(F)(F)F)c1)c1ccccc1OCC(O)CN1CCC(Cc2ccccc2)CC1` (stereo not drawn) [Compound I-68, 2-[3-(4-Benzyl-piperidin-1-yl)-2-hydroxy-propoxy]-N-(3-trifluoromethyl-phenyl)-benzamide], the negative logarithm of the IC50 (pIC50) in test [3] was 8.07; in test [4], 8.64.

As to `CC(C)CCNC(=O)c1ccccc1OCC(O)CNCC12CC3CC(CC(C3)C1)C2` (stereo not drawn) [Compound I-24, 2-{3-[(Adamantan-1-ylmethyl)-amino]-2-hydroxy-propoxy}-N-(3-methyl-butyl)-benzamide], the pIC50 is 6.87 in test [3] and 7.44 in test [4].

As for `Cc1ccc(NC(=O)c2ccccc2OCC(O)CN2CCC(Cc3ccccc3)CC2)cc1` (stereo not drawn) [Compound I-81, 2-[3-(4-Benzyl-piperidin-1-yl)-2-hydroxy-propoxy]-N-p-tolyl-benzamide], the results for the negative logarithm of the IC50 (pIC50) in test [3] and in test [4] were 7.44 and 8.07, respectively.

For orientation: pIC50 means the IC50 on a negative log10 scale, so that one unit is a factor of ten.

For the origin of these results see US20150141437A1, “AMIDOPHENOXYPROPANOLAMINES” (MEDIZINISCHE UNIVERSITÄT WIEN, priority 2012, published 2015).
